Laboratory results published in patent publication US20100210597A1, “C21-Deoxy Ansamycin Derivatives as Antitumor Agents” (priority 2007, published 2010).
Values joined by “and” are separate entries in the source; they are usually repeats but may differ in a detail not shown here. Equal values may be shown once.

Legend:
[1] = system: panel of human tumour cell lines; experiment: Monolayer proliferation assay, mean across cell line panel; format: cell-based; details: geometric mean of all replicates across six cell lines
Procedure: (§1) In vitro evaluation of compounds for anticancer activity in a panel of human tumour cell lines in a monolayer proliferation assay was carried out at the Oncotest Testing Facility, Institute for Experimental Oncology, Oncotest GmbH, Freiburg.
(§2) The Oncotest cell lines are established from human tumor xenografts as described by Roth et al., (1999). The origin of the donor xenografts is described by Fiebig et al., (1999). Other cell lines are either obtained from the NCl (DU145, MCF-7) or purchased from DSMZ, Braunschweig, Germany.
(§3) All cell lines, unless otherwise specified, are grown at 37° C. in a humidified atmosphere (95% air, 5% CO2) in a ‘ready-mix’ medium containing RPMI 1640 medium, 10% fetal calf serum, and 0.1 mg/mL gentamicin (PAA, Cölbe, Germany).
(§4) A modified propidium iodide assay was used to assess the effects of the test compound(s) on the growth of six human tumour cell lines (Dengler et al., (1995)).
Briefly, cells are harvested from exponential phase cultures by trypsinization, counted and plated in 96 well flat-bottomed microtitre plates at a cell density dependent on the cell line (5-10.000 viable cells/well). […] After thawing the plates, fluorescence was measured using the Cytofluor 4000 microplate reader (excitation 530 nm, emission 620 nm), giving a direct relationship to the total number of viable cells.
Growth inhibition is expressed as treated/control×100 (% T/C). […]

[2] = Aqueous solubility by direct dissolution; format: physicochemical; details: water, deionised water; limit not tested
Description: It is not possible to measure the solubility of 20 and 23 by this method due to their intrinsic high aqueous solubility.

[3] = system: LXF 1121L; experiment: Monolayer proliferation assay (modified propidium iodide), LXF 1121L; format: cell-based, human; details: average of 2 experiments
Procedure: as §1, §2, §3, §4
(§5) Briefly, cells are harvested from exponential phase cultures by trypsinization, counted and plated in 96 well flat-bottomed microtitre plates at a cell density dependent on the cell line (5-10.000 viable cells/well). After 24 h recovery to allow the cells to resume exponential growth, 0.010 mL of culture medium (6 control wells per plate) or culture medium containing macbecin were added to the wells. Each concentration is plated in triplicate. Compounds were applied in two concentrations (0.001 mM and 0.01 mM). Following 4 days of continuous exposure, cell culture medium with or without test compound was replaced by 0.2 mL of an aqueous propidium iodide (P1) solution (7 mg/L). To measure the proportion of living cells, cells were permeabilized by freezing the plates. After thawing the plates, fluorescence was measured using the Cytofluor 4000 microplate reader (excitation 530 nm, emission 620 nm), giving a direct relationship to the total number of viable cells.
(§6) Growth inhibition is expressed as treated/control×100 (% T/C).
(§7) In vitro evaluation of the test compound, 20, for anticancer activity in a panel of human tumour cell lines in a monolayer proliferation assay was carried out as described in the general methods using a modified propidium iodide assay.

[4] = system: DU145; experiment: Monolayer proliferation assay (modified propidium iodide), DU145; format: cell-based, human; details: average of 2 experiments
Procedure: as §1, §2, §3, §4, §5, §6, §7

[5] = system: CXF HT29; experiment: Monolayer proliferation assay (modified propidium iodide), CXF HT29; format: cell-based, human; details: average of 2 experiments
Procedure: as §1, §2, §3, §4, §5, §6, §7

[6] = system: CNXF 498NL; experiment: Monolayer proliferation assay (modified propidium iodide), CNXF 498NL; format: cell-based, human; details: average of 2 experiments
Procedure: as §1, §2, §3, §4
as §5, with “Compounds were applied in two concentrations (0.001 mM and 0.01 mM).” left out
as §6, §7

[7] = system: MEXF 394NL; experiment: Monolayer proliferation assay (modified propidium iodide), MEXF 394NL; format: cell-based, human; details: average of 2 experiments
Procedure: as §1, §2, §3, §4, §5, §6, §7

[8] = Whole blood cleavage assay, human blood; format: in vitro ADME; details: 10 uM, 37° C., two hours
Procedure: (§8) Human whole blood (single donor, batch HBE4534) was obtained from First Link UK Ltd. Mouse whole blood (pool of 10, batch 07-2470) was obtained from Harlan UK. Blood was collected into tubes containing EDTA as anticoagulant and shipped on ice. Blood was used on the day of arrival. In the case of human whole blood incubations were undertaken both on the fresh blood and also after freezing the blood followed by thawing. Control compounds were Lidocaine, Bisacodyl and Simvastatin.
(§9) All test compounds were incubated at 10 uM in whole blood at 37° C. At selected time points, 0.1 ml of blood was mixed with 0.3 ml of acetonitrile and vortexed immediately. All samples were centrifuged and supernatant were diluted with same volume of deionized water. […] For 20 sample analysis, mass spectrometry monitored both 17 and 20. […]
(§10) The Half life, for the disappearance of 20, was determined according to the relationship: […]
(§11) Blood cleavage assays were run to confirm that 20 acts as a prodrug and cleaves to produce compound 17 when incubated with human and mouse blood, as described in the general methods. The compound was incubated in human or mouse blood with samples removed over two hours, and analysed by LC MS/MS for presence of 20 and 17 (see FIG. 6). […] Due to the differing responses of 17 and 20 on mass spectrometry it was not possible to quantify the extent of conversion of 20 to 17.

[9] = system: MCF-7; experiment: Monolayer proliferation assay (modified propidium iodide), MCF-7; format: cell-based, human; details: average of 2 experiments
Procedure: as §1, §2, §3, §4, §5, §6, §7

[10] = Whole blood cleavage assay, mouse blood; format: in vitro ADME; details: 10 uM, 37° C., two hours
Procedure: as §8, §9, §10, §11

## CO[C@H]1C[C@H](C)Cc2cc(cc(OP(=O)(O)O)c2)NC(=O)/C(C)=C/CC[C@H](C)[C@@H](OC(N)=O)/C(C)=C/[C@H](C)[C@H]1O [Compound 20, 4,5-dihydro-11-O-demethyl-15-demethoxy-18,21-didehydro-21-deoxomacbecin-18-phosphate]
[1]
  average IC70 value across the cell-line panel: 0.344 µg/mL
[2]
  solubility: ≥ 10000 µg/mL and ≥ 17000 µM
[3]; 0.01 μg/mL
  Test/Control (%) at drug concentration (μg/mL): 103%
[3]; 0.1 μg/mL
  Test/Control (%) at drug concentration (μg/mL): 58%
[3]; 1 μg/mL
  Test/Control (%) at drug concentration (μg/mL): 15%
[3]; 10 μg/mL
  Test/Control (%) at drug concentration (μg/mL): 14%
[3]; 100 μg/mL
  Test/Control (%) at drug concentration (μg/mL): 5%
[4]; DU145, 0.01 μg/mL
  Test/Control (%) at drug concentration (μg/mL): 99%
[4]; DU145, 0.1 μg/mL
  Test/Control (%) at drug concentration (μg/mL): 53%
[4]; DU145, 1 μg/mL
  Test/Control (%) at drug concentration (μg/mL): 8%
[4]; DU145, 10 μg/mL
  Test/Control (%) at drug concentration (μg/mL): 9%
[4]; DU145, 100 μg/mL
  Test/Control (%) at drug concentration (μg/mL): 3%
[5]; CXF HT29, 0.01 μg/mL
  Test/Control (%) at drug concentration (μg/mL): 112%
[5]; CXF HT29, 0.1 μg/mL
  Test/Control (%) at drug concentration (μg/mL): 43%
[5]; CXF HT29, 1 μg/mL
  Test/Control (%) at drug concentration (μg/mL): 7%
[5]; CXF HT29, 10 μg/mL
  Test/Control (%) at drug concentration (μg/mL): 7%
[5]; CXF HT29, 100 μg/mL
  Test/Control (%) at drug concentration (μg/mL): 5%
[6]; 0.01 μg/mL
  Test/Control (%) at drug concentration (μg/mL): 99%
[6]; 0.1 μg/mL
  Test/Control (%) at drug concentration (μg/mL): 77%
[6]; 1 μg/mL
  Test/Control (%) at drug concentration (μg/mL): 15%
[6]; 10 μg/mL
  Test/Control (%) at drug concentration (μg/mL): 16%
[6]; 100 μg/mL
  Test/Control (%) at drug concentration (μg/mL): 12%
[7]; 0.01 μg/mL
  Test/Control (%) at drug concentration (μg/mL): 102%
[7]; 0.1 μg/mL
  Test/Control (%) at drug concentration (μg/mL): 50%
[7]; 1 μg/mL
  Test/Control (%) at drug concentration (μg/mL): 17%
[7]; 10 μg/mL
  Test/Control (%) at drug concentration (μg/mL): 16%
[7]; 100 μg/mL
  Test/Control (%) at drug concentration (μg/mL): 3%
[8]
  conversion in blood: act as a prodrug and release 17
[9]; MCF-7, 0.01 μg/mL
  Test/Control (%) at drug concentration (μg/mL): 98%
[9]; MCF-7, 0.1 μg/mL
  Test/Control (%) at drug concentration (μg/mL): 38%
[9]; MCF-7, 1 μg/mL
  Test/Control (%) at drug concentration (μg/mL): 14%
[9]; MCF-7, 10 μg/mL
  Test/Control (%) at drug concentration (μg/mL): 13%
[9]; MCF-7, 100 μg/mL
  Test/Control (%) at drug concentration (μg/mL): 9%
[10]
  conversion in blood: act as a prodrug and release 17
